The values that follow come from patent US8629100B2, “Method of inhibiting clostridium difficile by administration of oritavancin” (The Medicines Company, priority 2007, dated 2014).

Converted amounts (≈) assume the structure as drawn.

Holding throughout (assay type): cell-based
Experiment [1] deals with genotypically distinct C. difficile (n = 33). Description: Broth macrodilution MIC. Particulars: Clostridioides difficile, BM, broth macrodilution.
The test system of experiment [2] is C. difficile spores (PCR ribotypes 001, 106 and 027). As to the kind of experiment: Viability (recovery) of spores after antibiotic exposure, cellulose acetate filtration (Examples 3A, 3B). Here is the method: The experiments were in general performed by mixing C. difficile spores with an antibiotic, filtering the solution through cellulose acetate filters to collect the spores, applying the spore-containing filters to nutrient agar, and determining the number of spores remaining on the filters after a selected period of time.
Therefore, the initial experiment included dilution of antimicrobial-containing spore suspensions prior to filtration and washing. Reaction volumes were 1 mL for all antimicrobial/control solutions.
1 mL of control (de-ionised water+/−Tween-80) and test (antimicrobial containing) solutions were inoculated with 10 μL C. difficile spores (3 strains; PCR ribotypes 001, 106 and 027). Spore suspensions (time=1 min or 30 min) were transferred to filtration cupules and the appropriate volume of diluent (sterile de-ionised water+/−Tween-80) was added to achieve the dilution factors noted above. Samples were filtered onto cellulose acetate filters and washed with a further 50 mL of the appropriate diluent. Filters were transferred aseptically to Braziers CCEY agar containing 5 mg/L lysozyme and 2% lysed horse blood. This procedure was completed in duplicate. The culture media were incubated in an anaerobic atmosphere at 37° C. for 48 h and the numbers of C. difficile colonies were recorded.
Diluent was first added to filtration cupules. 1 mL reactions were then added to the appropriate diluent (1 min and 30 min after reaction formation) and filtered onto cellulose acetate filters. The filters were washed with 50 mL of the appropriate diluent. The filters were then transferred aseptically to Braziers CCEY agar containing 5 mg/L lysozyme and 2% lysed horse blood. This procedure was completed in duplicate. Culture media were incubated in an anaerobic atmosphere at 37° C. for 48 h and the numbers of C. difficile colonies recorded

The test system of experiment [3] is genotypically distinct C. difficile (n = 33). Description: Agar incorporation MIC. Particulars: for MIC90 / MIC range / MIC: AI; for MIC: read-out: GEO MIC. An excerpt: Thirty-three genotypically distinct (by PCR ribotyping) C. difficile isolates were selected from a library of strains at the Leeds General Infirmary (Leeds, UK). Representative isolates of epidemic C. difficile PCR ribotypes 001, 106 and 027 were included in the panel. Control isolates of Staphylococcus aureus ATCC 29213, Enterococcus faecalis ATCC 29212 and Bacteroides fragilis ATCC 25285 were included in all MIC determinations to ensure procedure accuracy.
Agar incorporation MICs were determined based on the method of Freeman and Wilcox (J Antimicrob Chemother 2001; 47: 244-6). Briefly, bacteria were cultured in Schaedler's anaerobic broth (Oxoid, Basingstoke, UK) at 37° C. for 24 h in an anaerobic cabinet (Don Whitley Scientific, Shipley). […] Oritavancin was prepared in 0.002% P80. All antimicrobial solutions were sterilized by filtration through 0.22 um syringe filters. […] Wilkins Chalgren agar (Oxoid) incorporating doubling dilutions of antimicrobial agents (0.03-16 mg/L) was prepared with and without 0.002% P80 and with and without 2% lysed horse blood (E&O Labs, Bonneybridge, UK). All media and diluents were pre-reduced overnight in the anaerobic cabinet. Bacterial cultures were diluted in sterile saline and inoculated onto the surface of agar incorporation agar plates using a multipoint inoculator (˜10^4 cfu). Agar incorporation plates were incubated anaerobically for 48 h. MIC endpoints were read as the lowest concentration of antimicrobial agent where there is no apparent growth (disregarding a visible haze of growth or a single colony).

The subject of experiment [4] is C. difficile PCR ribotype 027 spores. Description: Phase-contrast microscopy of spore germination/outgrowth. Particulars: 10 mg/L for 2 h, washed 3x in PBS. Here is the method: C. difficile spores were also exposed to 10 mg/L antimicrobial for 2 h, washed 3× in sterile PBS, re-suspended and inoculated into Brazier's broth medium (pH 7). Samples were removed at 2, 4, 6, 24, 32 and 48 h. Slides were viewed under phase-contrast microscopy and percentages of phase-bright spores, phase-dark spores and vegetative cells were recorded (FIG. 4).
Statistical analyses were performed by transforming percentage data using an Arcsin Transformation and analysed using a Wilcoxon signed rank test. P<0.05 was considered statistically significant. Supra-MIC concentrations of all antimicrobials prevented outgrowth but not germination of C. difficile spores.

Experiment [5] relates to C. difficile vegetative cultures and spores. As to the kind of experiment: Spiral gradient endpoint analysis MIC. The settings on record: data not shown. Here is the method: C. difficile PCR ribotypes 001, 106 and 027 were inoculated onto Columbia blood agar and incubated anaerobically (37° C.) for 10 d. Growth was harvested into sterile saline and alcohol shocked in an equal volume of 100% ethanol for 1 h. Alcohol-shocked spore suspensions were mixed by vortexing and sonicated for 5 minutes at room temperature. C. difficile phase-bright (non-germinated) spores were separated from phase-dark (germinated) spores and cellular debris by density gradient centrifugation (4000 rpm 15 minutes) following layering onto 50% (v/v in phosphate buffered saline) Urografin 370 (Schering, Germany). The density gradient centrifugation step was performed twice. Pellets of purified spores were re-suspended in sterile saline (1 mL per 10 Columbia blood agar plates harvested). Percentage phase-bright spores, phase-dark spores and vegetative cells were recorded using phase-contrast microscopy (×100 magnification).
A spiral plater (WASP2, Don Whitley Scientific, UK) was used to apply a logarithmic antibiotic gradient onto the surface of pre-dried (37° C. 20 minutes) Brazier's agar (pH 7). Agar with logarithmic antimicrobial gradients applied to their surface remained at room temperature for 1 h to allow the antimicrobial agent to adsorb into the agar. C. difficile vegetative cultures and spores (˜10^7 cfu/mL) were inoculated onto the agar surface (FIG. 1) with a sterile cotton swab and incubated anaerobically (37° C., 24 h). D-values were measured (in mm) and converted to MICs (Paton, J. H.1990. Int J Exp Clin Chemother. 9, 31-38).

By MIC90 is commonly meant an inhibitory concentration at the 90% level, which refers to growth in some studies and to a panel of isolates in others. One may read the MIC as the lowest concentration that inhibits growth of the organism. As to `Cc1ncc([N+](=O)[O-])n1CCO` [metronidazole], the MIC90 in experiment [1] was found to be 2 µg/mL (≈ 11.7 µM); in experiment [3] (P80 no LHB) it was 2 µg/mL (≈ 11.7 µM); in experiment [3] (no P80 no LHB) it was 2 µg/mL (≈ 11.7 µM); in experiment [3] (no P80 with LHB), 2 µg/mL (≈ 11.7 µM); in experiment [3] (Clostridioides difficile, P80 with LHB, read-out: MIC90) it was 2 µg/mL (≈ 11.7 µM). Also, the MIC in experiment [1] (read-out: GEO MIC) stood at 0.56 µg/mL (≈ 3.27 µM); in experiment [3] (Clostridioides difficile, P80 no LHB), 0.55 µg/mL (≈ 3.21 µM); in experiment [3] (Clostridioides difficile, P80 with LHB), 0.55 µg/mL (≈ 3.21 µM); in experiment [3] (Clostridioides difficile, no P80 no LHB) it was 0.53 µg/mL (≈ 3.1 µM); in experiment [3] (Clostridioides difficile, no P80 with LHB) it was 0.69 µg/mL (≈ 4.03 µM). Moreover, the “Recovery of C. difficile spores” value was 90-110 % of controls in experiment [2] (Example 3A: diluent added after reaction solutions, 1 min and 30 min exposure); 95-110 % of controls in experiment [2] (Example 3B: diluent added to cupules before reaction solutions, 1 min and 30 min). The MIC range is 0.25 to 2 µg/mL in experiment [3] (P80 no LHB), 0.25 to 4 µg/mL in experiment [3] (no P80 no LHB) and 0.5 to 4 µg/mL in experiment [3] (no P80 with LHB). Moreover, in experiment [3] (all agar conditions), the “Agar incorporation geometric mean MICs lower than oritavancin MICs” value was 2- to 5 fold. In addition, the “Agar incorporation geometric mean MICs lower than vancomycin MICs” value in experiment [3] (all agar conditions) is on record as 2- to 3 fold. Moreover, in experiment [4], the “Outgrowth of C. difficile spores prior-exposed to antimicrobial” value was “not observed”. The “MICs for C. difficile vegetative cells versus spores” value in experiment [5] was “did not differ substantially”.
